Patent US11780839B2, “Compounds for treating Huntington's disease” (PTC THERAPEUTICS, INC., priority 2018, dated 2023)
pIC50: −log10 of the molar value.

Tested on: Endogenous Huntingtin Protein
Test: Endogenous Huntingtin Protein Assay (ELISA-based Meso Scale Discovery electrochemiluminescence)
Type: cell-based
Settings: MSD electrochemiluminescence, Table 1
Procedure, shortened: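 Huntingtin was captured overnight at 4 °C on plates coated with 1 μg/mL MW1 (polyQ-expanded) or MAB2166 antibody and BSA-blocked. Detection used a rabbit monoclonal and then a SULFO-TAG goat anti-rabbit antibody (0.25 μg/mL, 1 h each, room temperature). Signal was read by electrochemiluminescence.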

| Compound | pIC50 |
| --- | --- |
| CN(c1ncc(-c2ccc(-n3cnc(Cl)n3)cc2O)nn1)C1CC(C)(C)NC(C)(C)C1 [Cpd 133, 5-(3-chloro-1H-1,2,4-triazol-1-yl)-2-{3-[methyl(2,2,6,6-tetramethylpiperidin-4-yl)amino]-1,2,4-triazin-6-yl}phenol] | ≥ 7.00 |
| CC(C)(C)NC1CCN(c2cnc(-c3ccc(-c4c[nH]nc4F)cc3O)nn2)C1 (stereo not shown) [Cpd 374, 2-{6-[3-(tert-butylamino)pyrrolidin-1-yl]-1,2,4-triazin-3-yl}-5-(3-fluoro-1H-pyrazol-4-yl)phenol] | ≥ 7.00 |
| C[C@H](CF)N[C@H]1CCN(c2ncc(-c3ccc(-c4cn[nH]c4)cc3O)nn2)C1 [Cpd 329, 2-{3-[(3S)-3-{[(2R)-1-fluoropropan-2-yl]amino}pyrrolidin-l-yl]-1,2,4-triazin-6-yl}-5-(1H-pyrazol-4-yl)phenol] | 6.30 to 7.00 |
| CC(C)NC1(C)CCN(c2ncc(-c3ccc(-c4cnn(C)c4)cc3O)nn2)C1 (stereo not shown) [Cpd 422] | ≥ 7.00 |
| Cn1cc(-c2ccc(-c3cnc(N4CCC(C)(N)C4)nn3)c(O)c2)cn1 (stereo not shown) [Cpd 389, 2-[3-(3-amino-3-methylpyrrolidin-1-yl)-1,2,4-triazin-6-yl]-5-(1-methyl-1H-pyrazol-4-yl)phenol] | ≥ 7.00 |
| CN(c1ncc(-c2ccc(-c3ccc4[nH]ncc4c3)cc2O)nn1)C1CC(C)(C)NC(C)(C)C1 [Cpd 97, 5-(1H-indazol-5-yl)-2-{3-[methyl(2,2,6,6-tetramethylpiperidin-4-yl)amino]-1,2,4-triazin-6-yl}phenol] | ≥ 7.00 |
| CC1(C)CC(Nc2ncc(-c3ccc(-c4cn5ccncc5n4)cc3O)nn2)CC(C)(C)N1 [Cpd 359, 5-(imidazo[1,2-a]pyrazin-2-yl)-2-{3-[(2,2,6,6-tetramethylpiperidin-4-yl)amino]-1,2,4-triazin-6-yl}phenol] | ≥ 7.00 |
| CC1CC(NC(C)(C)C)CN1c1ncc(-c2ccc(-c3cn[nH]c3)cc2O)nn1 (stereo not shown) [Cpd 171, 2-{3-[4-(tert-butylamino)-2-methylpyrrolidin-1-yl]-1,2,4-triazin-6-yl}-5-(1H-pyrazol-4-yl)phenol] | ≥ 7.00 |
| CN(c1ncc(-c2ccc(-c3cncnc3)cc2O)nn1)C1CC(C)(C)NC(C)(C)C1 [Cpd 86, 2-{3-[methyl(2,2,6,6-tetramethylpiperidin-4-yl)amino]-1,2,4-triazin-6-yl}-5-(pyrimidin-5-yl)phenol] | 6.30 to 7.00 |
| Cc1cn(-c2ccc(-c3cnc(N(C)C4CC(C)(C)NC(C)(C)C4)nn3)c(O)c2)cn1 [Cpd 10, 5-(4-methyl-1H-imidazol-1-yl)-2-{3-[methyl(2,2,6,6-tetramethylpiperidin-4-yl)amino]-1,2,4-triazin-6-yl}phenol] | ≥ 7.00 |
| C[C@@H]1CN(c2ncc(-c3ccc(-c4ccc5nccn5n4)cc3O)nn2)C[C@H](C)N1 [Cpd 385, 2-{3-[(3R,5S)-3,5-dimethylpiperazin-1-yl]-1,2,4-triazin-6-yl}-5-(imidazo[1,2-b]pyridazin-6-yl)phenol] | ≥ 7.00 |
| CN(c1ncc(-c2ccc(-c3ncc4[nH]ncc4n3)cc2O)nn1)C1CC(C)(C)NC(C)(C)C1 [Cpd 195, 2-{3-[methyl(2,2,6,6-tetramethylpiperidin-4-yl)amino]-1,2,4-triazin-6-yl}-5-(1H-pyrazolo[4,3-d]pyrimidin-5-yl)phenol] | ≥ 7.00 |
| Cn1nnc(-c2ccc(-c3cnc(N4CCC(NC(C)(C)C)C4)nn3)c(O)c2)n1 (stereo not shown) [Cpd 211, 2-{3-[3-(tert-butylamino)pyrrolidin-1-yl]-1,2,4-triazin-6-yl}-5-(2-methyl-2H-tetrazol-5-yl)phenol] | ≥ 7.00 |
| Oc1cc(-c2cn[nH]c2)ccc1-c1cnc(N2CCN3CCC[C@H]3C2)nn1 [Cpd 116, 2-{3-[(8aS)-hexahydropyrrolo[1,2-a]pyrazin-2(1H)-yl]-1,2,4-triazin-6-yl}-5-(1H-pyrazol-4-yl)phenol] | 6.30 to 7.00 |
| CN(c1ncc(-c2ccc(-c3ccc(=O)[nH]c3)cc2O)nn1)C1CC(C)(C)NC(C)(C)C1 [Cpd 104, 5-(3-hydroxy-4-{3-[methyl(2,2,6,6-tetramethylpiperidin-4-yl)amino]-1,2,4-triazin-6-yl}phenyl)pyridin-2(1H)-one] | ≥ 7.00 |
| CN(c1ncc(-c2ccc(-c3cn[nH]c3)cc2O)nn1)C1C[C@H]2CCC[C@@H](C1)N2 (stereo partly drawn) [Cpd 22, 2-(3-{[(1R,3S,5S)-9-azabicyclo[3.3.1]nonan-3-yl](methyl)amino}-1,2,4-triazin-6-yl)-5-(1H-pyrazol-4-yl)phenol] | ≥ 7.00 |
| Oc1cc(-c2cn[nH]c2)ccc1-c1cnc(N2CCC(CNC3CCC3)C2)nn1 (stereo not shown) [Cpd 415, 2-(3-{3-[(cyclobutylamino)methyl]pyrrolidin-1-yl}-1,2,4-triazin-6-yl)-5-(1H-pyrazol-4-yl)phenol] | ≥ 7.00 |
| CN1CCC2(CC1)CN(c1ncc(-c3ccc(-c4ncccn4)cc3O)nn1)C2 [Cpd 244, 2-[3-(7-methyl-2,7-diazaspiro[3.5]nonan-2-yl)-1,2,4-triazin-6-yl]-5-(pyrimidin-2-yl)phenol] | 5.05 to 5.52 |
| [2H]C([2H])([2H])n1cc(-c2ccc(-c3cnc(NC4CC(C)(C)NC(C)(C)C4)nn3)c(O)c2)cn1 [Cpd 373, 5-[1-(^2H3)methyl-1H-pyrazol-4-yl]-2-{3-[(2,2,6,6-tetramethylpiperidin-4-yl)amino]-1,2,4-triazin-6-yl}phenol] | ≥ 7.00 |

| Compound | pIC50 |
| --- | --- |
| CN(c1ncc(-c2ccc(-c3ncccn3)cc2O)nn1)C1CC(C)(C)NC(C)(C)C1 [Cpd 85, 2-{3-[methyl(2,2,6,6-tetramethylpiperidin-4-yl)amino]-1,2,4-triazin-6-yl}-5-(pyrimidin-2-yl)phenol] | ≥ 7.00 |
| Oc1cc(-c2cn[nH]c2)ccc1-c1cnc(N2CCC(C3CCCN3)C2)nn1 (stereo not shown) [Cpd 387, 2-[3-([2,3’-bipyrrolidin]-l’-yl)-1,2,4-triazin-6-yl]-5-(1H-pyrazol-4-yl)phenol] | ≥ 7.00 |
| CN(c1ncc(-c2ccc(-c3ccn4nnnc4c3)cc2O)nn1)C1CC(C)(C)NC(C)(C)C1 [Cpd 155, 2-{3-[methyl(2,2,6,6-tetramethylpiperidin-4-yl)amino]-1,2,4-triazin-6-yl}-5-(tetrazolo[1,5-a]pyridin-7-yl)phenol] | ≥ 7.00 |
| CN(c1ncc(-c2ccc(-c3cnn(C)c3)cc2O)nn1)[C@H]1C[C@]2(C)CC[C@](C)(C1)N2 [Cpd 408] | ≥ 7.00 |
| CC1(C)CC(Nc2ncc(-c3ccc(-n4nccn4)cc3O)nn2)C(F)C(C)(C)N1 (stereo not shown) [Cpd 324, 2-{3-[(3-fluoro-2,2,6,6-tetramethylpiperidin-4-yl)amino]-1,2,4-triazin-6-yl}-5-(2H-1,2,3-triazol-2-yl)phenol] | ≥ 7.00 |
| Cn1ncc2cc(-c3ccc(-c4cnc(N5CCC(NC(C)(C)C)C5)nn4)c(O)c3)ccc21 (stereo not drawn) [Cpd 208, 2-{3-[3-(tert-butylamino)pyrrolidin-l-yl]-1,2,4-triazin-6-yl}-5-(1-methyl-1H-indazol-5-yl)phenol] | 6.30 to 7.00 |
| CC1(C)CC(Nc2ncc(-c3ccc(-c4cn[nH]c4)cc3O)nn2)C(F)C(C)(C)N1 (stereo not shown) [Cpd 126, 2-{3-[(3-fluoro-2,2,6,6-tetramethylpiperidin-4-yl)amino]-1,2,4-triazin-6-yl}-5-(1H-pyrazol-4-yl)phenol] | ≥ 7.00 |
| Oc1cc(-c2cn[nH]c2)ccc1-c1cnc(N2CCC(NC3CCOCC3)C2)nn1 (stereo not shown) [Cpd 335, 2-(3-{3-[(oxan-4-yl)amino]pyrrolidin-1-yl}-1,2,4-triazin-6-yl)-5-(1H-pyrazol-4-yl)phenol] | ≥ 7.00 |
| Cn1cc(-c2ccc(-c3cnc(N4CC[C@H](NC5CCC5)C4)nn3)c(O)c2)cn1 [Cpd 407, 2-{3-[(3S)-3-(cyclobutylamino)pyrrolidin-1-yl]-1,2,4-triazin-6-yl}-5-(1-methyl-1H-pyrazol-4-yl)phenol] | ≥ 7.00 |
| Oc1cc(-c2cn[nH]c2)ccc1-c1cnc(N2CCC(CNC3CC4CCC(C3)O4)C2)nn1 (stereo not shown) [Cpd 405, 2-[3-(3-{[(8-oxabicyclo[3.2.1]octan-3-yl)amino]methyl}pyrrolidin-1-yl)-1,2,4-triazin-6-yl]-5-(1H-pyrazol-4-yl)phenol] | ≥ 7.00 |
| Oc1cc(-c2cn[nH]c2)ccc1-c1cnc(N2CCC3(CCCNC3)C2)nn1 (stereo not shown) [Cpd 369, 2-[3-(2,7-diazaspiro[4.5]decan-2-yl)-1,2,4-triazin-6-yl]-5-(1H-pyrazol-4-yl)phenol] | ≥ 7.00 |
| Oc1cc(-c2cn[nH]c2)ccc1-c1cnc(N2CC[C@@H](CNC3CCOCC3)C2)nn1 [Cpd 397, 2-{3-[(3S)-3-{[(oxan-4-yl)amino]methyl}pyrrolidin-1-yl]-1,2,4-triazin-6-yl}-5-(1H-pyrazol-4-yl)phenol] | ≥ 7.00 |
| Cn1ccc(-c2ccc(-c3cnc(N4CCC(NC(C)(C)C)C4)nn3)c(O)c2)cc1=O (stereo not shown) [Cpd 214, 4-(4-{3-[3-(tert-butylamino)pyrrolidin-1-yl]-1,2,4-triazin-6-yl}-3-hydroxyphenyl)-1-methylpyridin-2(1H)-one] | ≥ 7.00 |
| Oc1cc(-c2cn[nH]c2)ccc1-c1cnc(N2CCC3(CCNC3)CC2)nn1 [Cpd 181, 2-[3-(2,8-diazaspiro[4.5]decan-8-yl)-1,2,4-triazin-6-yl]-5-(1H-pyrazol-4-yl)phenol] | < 6.30 |
| CCN(CC)C1C2CN(c3ncc(-c4ccc(-c5cn[nH]c5)cc4O)nn3)CC21 (stereo not shown) [Cpd 127, 2-{3-[6-(diethylamino)-3-azabicyclo[3.1.0]hexan-3-yl]-1,2,4-triazin-6-yl}-5-(1H-pyrazol-4-yl)phenol] | 6.30 to 7.00 |
| CN(c1ncc(-c2ccc(-c3cnc4[nH]ncc4n3)cc2O)nn1)C1CC(C)(C)NC(C)(C)C1 [Cpd 194, 2-{3-[methyl(2,2,6,6-tetramethylpiperidin-4-yl)amino]-1,2,4-triazin-6-yl}-5-(1H-pyrazolo[3,4-b]pyrazin-5-yl)phenol] | ≥ 7.00 |
| Oc1cc(-c2cn[nH]c2)ccc1-c1cnc(N2CC3CNCC3C2)nn1 (stereo not shown) [Cpd 337, 2-[3-(hexahydropyrrolo[3,4-c]pyrrol-2(1H)-yl)-1,2,4-triazin-6-yl]-5-(1H-pyrazol-4-yl)phenol] | ≥ 7.00 |
| COCC(C)(C)NC1CCN(c2ncc(-c3ccc(-c4cn[nH]c4)cc3O)nn2)C1 (stereo not shown) [Cpd 341, 2-(3-{3-[(1-methoxy-2-methylpropan-2-yl)amino]pyrrolidin-1-yl}-1,2,4-triazin-6-yl)-5-(1H-pyrazol-4-yl)phenol] | ≥ 7.00 |
